From patent US20200163984A1, “USE OF ISOVALERYL SPIRAMYCIN I, II AND/OR III IN MANUFACTURING MEDICAMENT FOR TREATING AND/OR PREVENTING TUMOR, AND MEDICAMENT” (SHENYANG FUYANG PHARMACEUTICAL TECHNOLOGY CO., LTD., priority 2017, published 2020)
Values belong to the molecule of their own block, whether it stands above or below them.

Assays:
[1] = tested on: transplanted tumor of human glioma cell U251; experiment: U251 transplanted tumor in nude mice
Description: (§1) U251 cells in a logarithmic growth phase were taken and subjected to a trypan blue exclusion experiment showing that the cell viability was more than 95%, then the cells were subjected to trypsinization, centrifugation, and supernatant removal. Then cell concentration was adjusted to 1×10^7/ml with matrigel, then each nude mouse was inoculated subcutaneously with 0.2 ml of cells at its right armpit and recorded as the first day of inoculation. When the tumor grows to be greater than or equal to 100 mm^3, the mice were randomly divided into 11 groups with 6 mice in each group: a model group, a cyclophosphamide group, isovaleryl spiramycin I groups with doses of 25, 50 and 100 mg/kg, isovaleryl spiramycin II groups with doses of 25, 50 and 100 mg/kg, and isovaleryl spiramycin III groups with doses of 25, 50 and 100 mg/kg. Each group was continuously administered intragastrically for 30 days with a dose of 20 ml/kg. The mice were sacrificed the next day after drug withdrawal and the indicators were tested. The long diameter and short diameter of the tumor, and the body weight of each mouse were recorded every 3 days from drug administration to nude mouse sacrifice.
(§2) The body weight of the nude mice and the long diameter (a) and short diameter (b) of the transplanted tumor were measured every 3 days, and the tumor volume (v), relative tumor volume (RTV) and relative tumor proliferation rate (T/C) are calculated respectively according to the following formulas, wherein V=a×b^2/2; RTV=V/V0 (V0 is the tumor volume before administration, V is the tumor volume before sacrifice), and T/C (%)=treatment group RTV/model control group RTV×100%.
(§3) Each mouse was weighed and sacrificed. After the tumor was completely stripped off from the body of the mouse, the non-tumor tissues such as blood stains and fat were removed to weigh the tumor and calculate the tumor growth inhibition rate. The average tumor weight of each group of mice is used as an indicator of efficacy. Tumor growth inhibition rate (%)=(1−the average tumor weight of the treatment group/the average tumor weight of the model group)×100%.

[2] = tested on: transplanted tumor of human prostate cancer cell PC3; experiment: PC3 transplanted tumor in nude mice
Description: as §1, with “Then” for “U251 cells in a logarithmic growth phase were taken and subjected to a trypan blue exclusion experiment showing that the cell viability was more than 95%, then the cells were subjected to trypsinization, centrifugation, and supernatant removal. Then”
as §2, §3

[3] = tested on: transplanted tumor of human esophageal cancer cell TE-1; experiment: TE-1 transplanted tumor in nude mice
Description: as §1, with “Then” for “U251 cells in a logarithmic growth phase were taken and subjected to a trypan blue exclusion experiment showing that the cell viability was more than 95%, then the cells were subjected to trypsinization, centrifugation, and supernatant removal. Then”
as §2, §3

[4] = U251, high dose (100 mg/kg in method) i.g. 30 days
[5] = U251, low dose (25 mg/kg in method) i.g. 30 days
[6] = U251, medium dose (50 mg/kg in method) i.g. 30 days
[7] = PC3, 25 mg/kg (low dose) i.g. 30 days
[8] = PC3, 50 mg/kg (medium dose) i.g. 30 days
[9] = PC3, 100 mg/kg (high dose) i.g. 30 days
[10] = TE-1, 12.5 mg/kg (low dose) i.g. 30 days
[11] = TE-1, 25 mg/kg (medium dose) i.g. 30 days
[12] = TE-1, 50 mg/kg (high dose) i.g. 30 days

Structure (SMILES): O=P1(N(CCCl)CCCl)NCCCO1 (stereo not drawn) [Cyclophosphamide, cyclophosphamide, reference compound]
- Inhibition Rate (%) ([1]; U251 nude mice, 30 mg/kg): 69.31%
- Relative Tumor Proliferation Rate (T/C) ([1]; U251 nude mice, 30 mg/kg): 62.92%
- Relative Tumor Volume (RTV) ([1]; U251 nude mice, 30 mg/kg): 4.23 ± 0.95
- Tumor Weight ([1]; U251 nude mice, 30 mg/kg): 0.42 ± 0.06 g
- Body Weight (g) (d1) ([1]; U251 nude mice, 30 mg/kg, d1): 20.72 ± 0.48 g
- Tumor Volume (mm3) (d 1) ([1]; U251 nude mice, 30 mg/kg, d1): 119.00 ± 11.13 mm3
- Body Weight (g) (d30) ([1]; U251 nude mice, 30 mg/kg, d30): 19.40 ± 1.40 g
- Tumor Volume (mm3) (d30) ([1]; U251 nude mice, 30 mg/kg, d30): 504.56 ± 93.91 mm3
- Body Weight (d 1) ([2]; PC3, 30 mg/kg i.g. 30 days): 21.57 ± 0.75 g
- Body Weight (d 30) ([2]; PC3, 30 mg/kg i.g. 30 days): 16.43 ± 0.78 g
- Inhibition Rate (tumor growth inhibition rate) ([2]; PC3, 30 mg/kg i.g. 30 days): 70.03%
- Relative Tumor Proliferation Rate (T/C) ([2]; PC3, 30 mg/kg i.g. 30 days): 29.33%
- Relative Tumor Volume (RTV) ([2]; PC3, 30 mg/kg i.g. 30 days): 5.73 ± 2.23
- Tumor Volume (d 1) ([2]; PC3, 30 mg/kg i.g. 30 days): 155.36 ± 34.96 mm3
- Tumor Volume (d 30) ([2]; PC3, 30 mg/kg i.g. 30 days): 834.50 ± 135.35 mm3
- Tumor Weight ([2]; PC3, 30 mg/kg i.g. 30 days): 0.56 ± 0.17 g
- Body Weight (d 1) ([3]; TE-1, 30 mg/kg i.g. 30 days): 23.18 ± 1.22 g
- Body Weight (d 30) ([3]; TE-1, 30 mg/kg i.g. 30 days): 20.57 ± 1.14 g
- Inhibition Rate (tumor growth inhibition rate) ([3]; TE-1, 30 mg/kg i.g. 30 days): 71.87%
- Relative Tumor Proliferation Rate (T/C) ([3]; TE-1, 30 mg/kg i.g. 30 days): 30.18%
- Relative Tumor Volume (RTV) ([3]; TE-1, 30 mg/kg i.g. 30 days): 4.00 ± 1.91
- Tumor Volume (d 1) ([3]; TE-1, 30 mg/kg i.g. 30 days): 269.96 ± 92.18 mm3
- Tumor Volume (d 30) ([3]; TE-1, 30 mg/kg i.g. 30 days): 886.22 ± 271.22 mm3
- Tumor Weight ([3]; TE-1, 30 mg/kg i.g. 30 days): 0.44 ± 0.18 g

- mouse weight compared with the model group ([1]; mouse, in vivo): no significant changes
- mouse weight compared with the model group ([2]; mouse, in vivo): no significant changes
- mouse weight compared with the model group ([3]; mouse, in vivo): no significant changes
Structure (SMILES): CO[C@@H]1[C@@H](O[C@@H]2O[C@H](C)[C@@H](O[C@H]3C[C@@](C)(O)[C@@H](OC(=O)CC(C)C)[C@H](C)O3)[C@H](N(C)C)[C@H]2O)[C@@H](CC=O)C[C@@H](C)[C@@H](O[C@H]2CC[C@H](N(C)C)[C@@H](C)O2)/C=C/C=C/C[C@@H](C)OC(=O)C[C@H]1O [Isovaleryl spiramycin I, isovaleryl spiramycin I]
- Relative Tumor Proliferation Rate (T/C) [1, 4]: 25.80%
- tumor growth inhibition rate [1, 4]: 69.21%
- Relative Tumor Proliferation Rate (T/C) [1, 5]: 76.40%
- tumor growth inhibition rate [1, 5]: 30.94%
- tumor volume and relative tumor volume compared with the model group ([1]; U251, low, medium and high doses, P<0.05): significantly lower
- Relative Tumor Proliferation Rate (T/C) [1, 6]: 44.54%
- tumor growth inhibition rate [1, 6]: 44.53%
- Inhibition Rate (%) ([1]; U251 nude mice, 25 mg/kg): 30.94%
- Relative Tumor Proliferation Rate (T/C) ([1]; U251 nude mice, 25 mg/kg): 76.40%
- Relative Tumor Volume (RTV) ([1]; U251 nude mice, 25 mg/kg): 12.69 ± 1.08
- Tumor Weight ([1]; U251 nude mice, 25 mg/kg): 0.96 ± 0.08 g
- Tumor Volume (mm3) (d 1) ([1]; U251 nude mice, 25 mg/kg, d1): 122.81 ± 10.35 mm3
- Tumor Volume (mm3) (d30) ([1]; U251 nude mice, 25 mg/kg, d30): 1550.33 ± 72.99 mm3
- Inhibition Rate (%) ([1]; U251 nude mice, 50 mg/kg): 44.53%
- Relative Tumor Proliferation Rate (T/C) ([1]; U251 nude mice, 50 mg/kg): 44.54%
- Relative Tumor Volume (RTV) ([1]; U251 nude mice, 50 mg/kg): 10.67 ± 1.09
- Tumor Weight ([1]; U251 nude mice, 50 mg/kg): 0.77 ± 0.09 g
- Tumor Volume (mm3) (d 1) ([1]; U251 nude mice, 50 mg/kg, d1): 124.39 ± 10.31 mm3
- Tumor Volume (mm3) (d30) ([1]; U251 nude mice, 50 mg/kg, d30): 930.42 ± 204.72 mm3
- Inhibition Rate (%) ([1]; U251 nude mice, 100 mg/kg): 69.21%
- Relative Tumor Proliferation Rate (T/C) ([1]; U251 nude mice, 100 mg/kg): 25.80%
- Relative Tumor Volume (RTV) ([1]; U251 nude mice, 100 mg/kg): 10.05 ± 0.71
- Tumor Weight ([1]; U251 nude mice, 100 mg/kg): 0.43 ± 0.01 g
- Tumor Volume (mm3) (d 1) ([1]; U251 nude mice, 100 mg/kg, d1): 124.88 ± 6.57 mm3
- Tumor Volume (mm3) (d30) ([1]; U251 nude mice, 100 mg/kg, d30): 537.02 ± 93.66 mm3
- Body Weight (g) (d1) ([1]; mouse, in vivo, 25 mg/kg): 21.03 ± 0.55 g
- Body Weight (g) (d30) ([1]; mouse, in vivo, 25 mg/kg): 21.09 ± 0.53 g
- Body Weight (g) (d1) ([1]; mouse, in vivo, 50 mg/kg): 20.78 ± 0.66 g
- Body Weight (g) (d30) ([1]; mouse, in vivo, 50 mg/kg): 21.08 ± 0.54 g
- Body Weight (g) (d1) ([1]; mouse, in vivo, 100 mg/kg): 21.10 ± 0.35 g
- Body Weight (g) (d30) ([1]; mouse, in vivo, 100 mg/kg): 20.86 ± 0.66 g
- Inhibition Rate (tumor growth inhibition rate) [2, 7]: 33.87%
- Relative Tumor Proliferation Rate (T/C) [2, 7]: 70.43%
- Relative Tumor Volume (RTV) [2, 7]: 13.78 ± 3.15
- Tumor Volume (d 1) [2, 7]: 127.59 ± 6.73 mm3
- Tumor Volume (d 30) [2, 7]: 1758.15 ± 412.68 mm3
- Tumor Weight [2, 7]: 1.24 ± 0.51 g
- Inhibition Rate (tumor growth inhibition rate) [2, 8]: 51.33%
- Relative Tumor Proliferation Rate (T/C) [2, 8]: 49.14%
- Relative Tumor Volume (RTV) [2, 8]: 9.61 ± 3.15
- Tumor Volume (d 1) [2, 8]: 186.59 ± 39.40 mm3
- Tumor Volume (d 30) [2, 8]: 1706.14 ± 347.50 mm3
- Tumor Weight [2, 8]: 0.91 ± 0.33 g
- Inhibition Rate (tumor growth inhibition rate) [2, 9]: 71.01%
- Relative Tumor Proliferation Rate (T/C) [2, 9]: 30.72%
- Relative Tumor Volume (RTV) [2, 9]: 6.01 ± 1.78
- Tumor Volume (d 1) [2, 9]: 175.94 ± 12.32 mm3
- Tumor Volume (d 30) [2, 9]: 1041.69 ± 247.71 mm3
- Tumor Weight [2, 9]: 0.55 ± 0.21 g
- tumor volume and relative tumor volume compared with the model group ([2]; PC3, low, medium and high doses, P<0.05): significantly lower
- Inhibition Rate (tumor growth inhibition rate) [3, 10]: 30.92%
- Relative Tumor Proliferation Rate (T/C) [3, 10]: 60.55%
- Relative Tumor Volume (RTV) [3, 10]: 5.48 ± 3.80
- Tumor Volume (d 1) [3, 10]: 408.51 ± 150.80 mm3
- Tumor Volume (d 30) [3, 10]: 2690.27 ± 374.79 mm3
- Tumor Weight [3, 10]: 1.08 ± 0.24 g
- Inhibition Rate (tumor growth inhibition rate) [3, 11]: 51.01%
- Relative Tumor Proliferation Rate (T/C) [3, 11]: 40.70%
- Relative Tumor Volume (RTV) [3, 11]: 3.94 ± 2.71
- Tumor Volume (d 1) [3, 11]: 258.44 ± 104.69 mm3
- Tumor Volume (d 30) [3, 11]: 1143.85 ± 402.36 mm3
- Tumor Weight [3, 11]: 0.77 ± 0.43 g
- Inhibition Rate (tumor growth inhibition rate) [3, 12]: 69.71%
- Relative Tumor Proliferation Rate (T/C) [3, 12]: 20.61%
- Relative Tumor Volume (RTV) [3, 12]: 3.65 ± 1.71
- Tumor Volume (d 1) [3, 12]: 279.56 ± 156.70 mm3
- Tumor Volume (d 30) [3, 12]: 626.64 ± 431.35 mm3
- Tumor Weight [3, 12]: 0.48 ± 0.36 g
- tumor volume and relative tumor volume compared with the model group ([3]; TE-1, low, medium and high doses, P<0.05): significantly lower
